Values quoted from earlier work, collected in patent US20220073443A1, “CANNABINOID FORMULATIONS AND METHODS OF MAKING SAME” (BOTANECO INC., priority 2018, published 2022).

Conditions: consumed by smoking marihuana; average

In the case of `CCCCCc1cc(O)c2c(c1)OC(C)(C)[C@@H]1CCC(C)=C[C@@H]21` [Δ^9-THC, Δ^9-tetrahydrocannabinol], the “bioavailability of pulmonary-delivered Δ9-THC” value is listed as ~30%.
